Source: US8795679B2, “Pharmaceutical and cosmetic use of extracts from algae obtainable from saline hot water sources” (Blaa Lonid Hf, priority 2006, dated 2014)

Tested on: differentiation markers involucrin, transglutaminase-1, filaggrin, and loricrin in human epidermal keratinocytes
Test: Induction of differentiation markers in human epidermal keratinocytes (real time RT-PCR)
Assay type: cell-based
Conditions: especially at the early time point, 24 h post addition of the tested substance
Description: The effect of the extracts obtained in Examples 1 and 2 on the differentiation markers involucrin, transglutaminase-1, filaggrin, and loricrin in human epidermal keratinocytes has been assessed. As control a ceramide mix (10 μM) was used to induce the differentiation markers.
Long term cultured normal human epidermal keratinocytes, NHEK, prepared from neonatal foreskin are cultured in Keratinocyte SFM (Invitrogen, Heidelberg, Germany) supplemented with bovine pituitary extract (Invitrogen, Heidelberg, Germany) and recombinant epidermal growth factor (Invitrogen, Heidelberg, Germany). Cells are propagated up to passage 2 or 3 at 37° C. and 5% CO2. For induction of differentiation NHEKs are seeded in 6-well plates and grown up to confluence and treated with several concentrations of the algae extracts.
Total RNA was isolated using RNeasy Total RNA Kits (Qiagen, Hilden, Germany). The RNA concentration was determined via photometric measurement at 260/280 (Biophotometer, Eppendorf A G, Hamburg, Germany). An aliquot of 100 ng RNA was used for cDNA synthesis. […]
PCR reactions were carried out on an Opticon 1 (MJ Research, Waltham, Mass., USA) using SYBR Green® PCR Master Mix (Applied Biosystems, Darmstadt, Germany). Each sample was analyzed in double employing the universal protocol over 36 cycles. […]

expression of the differentiation markers involucrin, filaggrin and transglutaminase-1 (silica samples): substantial up-regulation
Compound: O=[Si]([O-])[O-].[Na+].[Na+] [sodium metasilicate]
